Ki data for two compounds are collected here from US6770661B2, “Aryl substituted pyridines and their use” (Euro-Celtique S.A., priority 2001, dated 2004).

Structures are written as SMILES.

For the experiment, the target named is rBIIa/beta 1 sodium channels expressed in Xenopus oocytes (Rattus norvegicus, UniProt P04775). Nature of the experiment: Electrophysiological in vitro assay, two-electrode voltage clamp, sodium channel blockade. It counts as cell-based. The settings on record: apparent inhibition constant for the inactivated state, from single point inhibition data; holding potential −120 mV, 4 second depolarization; read-out: RBIIA/β1 Ki. The method, then:
Electrophysiological Assay:
Electrophysiological Assay was used to measure potencies of compounds of the present invention rBIIa/beta 1 sodium channels expressed in Xenopus oocytes.
Preparation of cRNA encoding cloned rat brain type IIa (rBIIa) and beta 1 (β1): cDNA clones encoding the rat brain beta 1 subunit were cloned in house using standard methods, and mRNA were prepared by standard methods. mRNA encoding rBIIa was provided by Dr. A. Golden (UC Irvine). The mRNAs were diluted and stored at −80° C. in 1 μL aliquots until injection. […]
Electrophysiology: Membrane current responses were recorded in frog Ringer solution containing 115 mM NaCl, 2 mM KCl, 1.8 mM CaCl2, 5 mM HEPES, pH 7.4. […]
Voltage protocols for evoking sodium channel currents: The standard holding potential for whole oocyte clamp was −120 mV. […] Peak currents were measured as the maximum negative current after depolarizing voltage steps. […]
The purpose was to find compounds that are state dependent modifiers of neuronal sodium channels. […] Sodium currents were measured at this test pulse before and after the application of the tested compound. Data was acquired using pClamp 8.0 software and analyzed with clampfit software (Axon instruments). […]

Sequence of rBIIa/beta 1 sodium channels expressed in Xenopus oocytes (P04775 whole entry): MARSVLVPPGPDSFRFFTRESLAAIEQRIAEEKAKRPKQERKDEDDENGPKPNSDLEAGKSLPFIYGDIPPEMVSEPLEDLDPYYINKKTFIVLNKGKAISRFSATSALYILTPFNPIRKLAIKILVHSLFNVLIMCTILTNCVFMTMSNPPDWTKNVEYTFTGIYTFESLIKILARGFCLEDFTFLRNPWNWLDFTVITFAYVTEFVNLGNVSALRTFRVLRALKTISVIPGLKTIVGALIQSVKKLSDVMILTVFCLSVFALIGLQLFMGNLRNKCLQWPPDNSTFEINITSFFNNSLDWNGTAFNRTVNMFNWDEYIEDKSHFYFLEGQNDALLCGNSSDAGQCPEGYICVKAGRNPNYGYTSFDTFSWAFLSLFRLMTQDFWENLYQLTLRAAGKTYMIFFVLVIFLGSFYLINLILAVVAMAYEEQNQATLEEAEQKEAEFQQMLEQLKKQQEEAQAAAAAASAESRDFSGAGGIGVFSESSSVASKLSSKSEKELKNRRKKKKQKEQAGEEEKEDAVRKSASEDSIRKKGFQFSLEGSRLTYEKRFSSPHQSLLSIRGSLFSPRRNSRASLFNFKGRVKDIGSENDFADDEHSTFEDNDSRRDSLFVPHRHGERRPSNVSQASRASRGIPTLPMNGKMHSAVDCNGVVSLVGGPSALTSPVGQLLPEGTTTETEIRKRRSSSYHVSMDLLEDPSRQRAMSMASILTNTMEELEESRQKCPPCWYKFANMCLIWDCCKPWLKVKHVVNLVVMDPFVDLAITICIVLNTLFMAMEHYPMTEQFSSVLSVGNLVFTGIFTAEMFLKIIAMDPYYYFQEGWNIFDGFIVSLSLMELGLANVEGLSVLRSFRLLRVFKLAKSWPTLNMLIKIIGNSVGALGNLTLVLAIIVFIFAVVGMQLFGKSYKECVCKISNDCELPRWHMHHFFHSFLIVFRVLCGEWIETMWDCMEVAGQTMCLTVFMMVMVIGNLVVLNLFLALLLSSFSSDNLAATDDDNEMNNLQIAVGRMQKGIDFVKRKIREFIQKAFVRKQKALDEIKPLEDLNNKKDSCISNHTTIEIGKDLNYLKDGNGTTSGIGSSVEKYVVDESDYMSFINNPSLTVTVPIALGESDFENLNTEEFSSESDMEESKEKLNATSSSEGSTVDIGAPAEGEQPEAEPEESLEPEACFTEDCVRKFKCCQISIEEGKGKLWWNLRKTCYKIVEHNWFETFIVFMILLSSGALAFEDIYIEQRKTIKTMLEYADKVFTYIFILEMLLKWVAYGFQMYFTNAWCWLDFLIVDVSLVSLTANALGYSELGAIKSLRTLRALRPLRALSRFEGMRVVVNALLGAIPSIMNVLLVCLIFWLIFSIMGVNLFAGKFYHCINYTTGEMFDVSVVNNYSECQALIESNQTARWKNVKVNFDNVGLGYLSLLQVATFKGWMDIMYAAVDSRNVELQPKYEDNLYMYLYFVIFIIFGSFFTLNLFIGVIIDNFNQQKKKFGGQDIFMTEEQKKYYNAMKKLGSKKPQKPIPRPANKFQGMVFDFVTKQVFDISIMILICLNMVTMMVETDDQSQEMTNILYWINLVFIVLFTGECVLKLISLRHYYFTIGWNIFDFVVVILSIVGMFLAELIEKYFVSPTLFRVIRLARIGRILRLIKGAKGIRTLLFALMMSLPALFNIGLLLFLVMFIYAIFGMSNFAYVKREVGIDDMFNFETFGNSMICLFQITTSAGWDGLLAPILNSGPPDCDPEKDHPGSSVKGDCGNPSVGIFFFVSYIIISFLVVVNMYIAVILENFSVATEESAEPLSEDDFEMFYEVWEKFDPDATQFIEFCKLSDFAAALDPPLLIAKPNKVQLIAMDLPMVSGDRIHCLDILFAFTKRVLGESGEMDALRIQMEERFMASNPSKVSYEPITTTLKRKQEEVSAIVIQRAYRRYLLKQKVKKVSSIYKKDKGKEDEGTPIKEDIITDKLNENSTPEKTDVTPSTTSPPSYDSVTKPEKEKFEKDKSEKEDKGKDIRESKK
Sequence of rBIIa/beta 1 sodium channels expressed in Xenopus oocytes (Q00954 19-218 partner): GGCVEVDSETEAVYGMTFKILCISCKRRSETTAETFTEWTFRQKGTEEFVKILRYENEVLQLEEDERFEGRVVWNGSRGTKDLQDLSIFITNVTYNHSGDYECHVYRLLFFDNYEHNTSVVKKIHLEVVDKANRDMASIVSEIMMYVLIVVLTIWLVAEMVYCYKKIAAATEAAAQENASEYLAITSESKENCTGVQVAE

`NC(=O)c1cc(N2CCOCC2)cc(-c2ccc(Oc3ccc(F)cc3)cc2)n1` [2-[4-(4-Fluorophenoxy)phenyl]-4-N-morpholinylpyridine-6-carboxamide]: the Ki amounted to 290 nM.
To `Cc1cc(OCCN2CCCCC2)cc(-c2ccc(Oc3ccc(F)cc3)cc2)n1` [2-[4-(4-Fluorophenoxy)phenyl]-6-methyl-4-[2-(N-piperidinyl)ethoxy]-pyridine] belongs 180 nM.
